Drawing on the NIST ThermoML archive (doi:10.1016/j.jct.2013.03.007), this text covers mass density for two compounds.

The conditions of this data set: 101.33 kPa, Liquid, Vibrating tube method.

SMILES strings stand for the structures. ± gives the expanded uncertainty stated by the source.

`CCCCn1cc[n+](C)c1.F[P-](F)(F)(F)(F)F` [1-butyl-3-methylimidazolium hexafluorophosphate]: the mass density – broadly, mass per unit of volume – by setting is: (288.2 K) 1376.4 ± 0.6 kg/m3; (293.2 K) 1372.1 ± 0.6 kg/m3; (298.2 K) 1367.8 ± 0.6 kg/m3; (303.2 K) 1363.6 ± 0.5 kg/m3; (308.2 K) 1359.5 ± 0.5 kg/m3; (313.2 K) 1355.6 ± 0.5 kg/m3. For the same compound, the mass density is, setting by setting: (318.2 K) 1351.3 ± 0.5 kg/m3; (323.2 K) 1347.2 ± 0.5 kg/m3; (328.2 K) 1343.1 ± 0.5 kg/m3; (333.2 K) 1339 ± 0.5 kg/m3; (338.2 K) 1335 ± 0.5 kg/m3; (343.2 K) 1330.9 ± 0.5 kg/m3. The mass density (348.2 K) is 1326.8 ± 0.5 kg/m3 and the mass density (353.2 K) turned out to be 1322.8 ± 0.5 kg/m3.

Take `CCCCn1cc[n+](C)c1.F[B-](F)(F)F` [1-butyl-3-methylimidazolium tetrafluoroborate]: the mass density is, setting by setting: (293.2 K) 1204.1 ± 1.3 kg/m3; (298.2 K) 1201 ± 1.3 kg/m3; (303.2 K) 1197.5 ± 1.3 kg/m3; (308.2 K) 1194 ± 1.3 kg/m3; (313.2 K) 1190.4 ± 1.3 kg/m3; (318.2 K) 1186.9 ± 1.2 kg/m3. Moreover, the mass density was found to be 1183.4 ± 1.2 kg/m3 (323.2 K); 1180 ± 1.2 kg/m3 (328.2 K); 1176.5 ± 1.2 kg/m3 (333.2 K); 1173 ± 1.2 kg/m3 (338.2 K); 1169.6 ± 1.2 kg/m3 (343.2 K); 1166.1 ± 1.2 kg/m3 (348.2 K). For the same compound, the mass density (353.2 K) is on record as 1162.7 ± 1.2 kg/m3 and the mass density (358.2 K) came to 1159.3 ± 1.2 kg/m3.
